Each block holds one compound with its values, some of them ahead of it.
Columns and labels:
[1] = Heating experiment via DSC followed by XRD; format: physicochemical
From the text: The heated samples were then collected and subjected to XRD analysis. Table 27: Summary of heating test results for various crystal forms

[2] = Solid state stability of crystal forms (XRD and HPLC); format: physicochemical
Method: Samples of the crystal forms B, H, and L were placed under the conditions of 25 °C/60% RH and 40 °C/75% RH for 17 days, and then the physicochemical stability of the samples was tested using XRD and HPLC. Table 24: Summary of solid state stability evaluation of crystal forms

stability on heating ([1]; after heating (>100 °C)): high-temperature stable crystal form
SMILES: Cn1cc2cc(-c3nn4ccc(C5CC5)nc4c(-c4ccc(OC(F)F)cc4)c3=O)ccc2n1 [Crystal form A, 2-cyclopropyl-9-[4-(difluoromethoxy)phenyl]-7-(2-methyl-2H-indazol-5-yl)-8H-pyrimido[1,2-b]pyridazin-8-one]

Crystal form change ([2]; 0 day): No
Purity ([2]; 0 day): 98.69%
Crystal form change ([2]; 25 °C/60% RH/17 days): No
Purity ([2]; 25 °C/60% RH/17 days): 98.69%
Crystal form change ([2]; 40 °C/75% RH/17 days): No
Purity ([2]; 40 °C/75% RH/17 days): 98.68%
After heating (crystal form) ([1]; Heating temperature 250 °C): Crystal form A
SMILES: Cn1cc2cc(-c3nn4ccc(C5CC5)nc4c(-c4ccc(OC(F)F)cc4)c3=O)ccc2n1 [Crystal form B, 2-cyclopropyl-9-[4-(difluoromethoxy)phenyl]-7-(2-methyl-2H-indazol-5-yl)-8H-pyrimido[1,2-b]pyridazin-8-one]
change in crystal form or purity ([2]; 25 °C/60% RH for 17 days): no change in either crystal form or purity
change in crystal form or purity ([2]; 40 °C/75% RH for 17 days): no change in either crystal form or purity

After heating (crystal form) ([1]; Heating temperature 150 °C): Crystal forms A + H + L
SMILES: Cn1cc2cc(-c3nn4ccc(C5CC5)nc4c(-c4ccc(OC(F)F)cc4)c3=O)ccc2n1 [Crystal form D, 2-cyclopropyl-9-[4-(difluoromethoxy)phenyl]-7-(2-methyl-2H-indazol-5-yl)-8H-pyrimido[1,2-b]pyridazin-8-one]

Crystal form change ([2]; 0 day): No
Purity ([2]; 0 day): 98.62%
Purity ([2]; 25 °C/60% RH/17 days): 98.59%
Crystal form change ([2]; 40 °C/75% RH/17 days): No
Purity ([2]; 40 °C/75% RH/17 days): 98.59%
After heating (crystal form) ([1]; Heating temperature 250 °C): Crystal form A
SMILES: Cn1cc2cc(-c3nn4ccc(C5CC5)nc4c(-c4ccc(OC(F)F)cc4)c3=O)ccc2n1 [Crystal form H, 2-cyclopropyl-9-[4-(difluoromethoxy)phenyl]-7-(2-methyl-2H-indazol-5-yl)-8H-pyrimido[1,2-b]pyridazin-8-one]
change in crystal form or purity ([2]; 25 °C/60% RH for 17 days): no change in purity, but had a decrease in crystallinity
Crystal form change ([2]; 25 °C/60% RH/17 days): No change in crystal form was observed, but the crystallinity decreased
change in crystal form or purity ([2]; 40 °C/75% RH for 17 days): no change in either crystal form or purity

After heating (crystal form) ([1]; Heating temperature 150 °C): Crystal form A
SMILES: Cn1cc2cc(-c3nn4ccc(C5CC5)nc4c(-c4ccc(OC(F)F)cc4)c3=O)ccc2n1 [Crystal form I, 2-cyclopropyl-9-[4-(difluoromethoxy)phenyl]-7-(2-methyl-2H-indazol-5-yl)-8H-pyrimido[1,2-b]pyridazin-8-one]

After heating (crystal form) ([1]; Heating temperature 150 °C): Crystal form A
SMILES: Cn1cc2cc(-c3nn4ccc(C5CC5)nc4c(-c4ccc(OC(F)F)cc4)c3=O)ccc2n1 [Crystal form M, 2-cyclopropyl-9-[4-(difluoromethoxy)phenyl]-7-(2-methyl-2H-indazol-5-yl)-8H-pyrimido[1,2-b]pyridazin-8-one]

After heating (crystal form) ([1]; Heating temperature 100 °C): Crystal form A
SMILES: Cn1cc2cc(-c3nn4ccc(C5CC5)nc4c(-c4ccc(OC(F)F)cc4)c3=O)ccc2n1 [Crystal form N, 2-cyclopropyl-9-[4-(difluoromethoxy)phenyl]-7-(2-methyl-2H-indazol-5-yl)-8H-pyrimido[1,2-b]pyridazin-8-one]

After heating (crystal form) ([1]; Heating temperature 150 °C): Crystal form A
SMILES: Cn1cc2cc(-c3nn4ccc(C5CC5)nc4c(-c4ccc(OC(F)F)cc4)c3=O)ccc2n1 [Crystal form O, 2-cyclopropyl-9-[4-(difluoromethoxy)phenyl]-7-(2-methyl-2H-indazol-5-yl)-8H-pyrimido[1,2-b]pyridazin-8-one]

After heating (crystal form) ([1]; Heating temperature 150 °C): Crystal form A
SMILES: Cn1cc2cc(-c3nn4ccc(C5CC5)nc4c(-c4ccc(OC(F)F)cc4)c3=O)ccc2n1 [Crystal form P, 2-cyclopropyl-9-[4-(difluoromethoxy)phenyl]-7-(2-methyl-2H-indazol-5-yl)-8H-pyrimido[1,2-b]pyridazin-8-one]

After heating (crystal form) ([1]; Heating temperature 130 °C): Crystal form A
SMILES: Cn1cc2cc(-c3nn4ccc(C5CC5)nc4c(-c4ccc(OC(F)F)cc4)c3=O)ccc2n1 [Crystal form Q, 2-cyclopropyl-9-[4-(difluoromethoxy)phenyl]-7-(2-methyl-2H-indazol-5-yl)-8H-pyrimido[1,2-b]pyridazin-8-one]
